One data set addresses CYP2C9 (Homo sapiens, UniProt P11712). The data set is described as follows: Vivid CYP450 screening kit, CYP2C9 activity. As to conditions: positive control, 10 μM, in blank serum.
Data set [1] can be described thus: Measurement of INR in rats (anticoagulation effect of warfarin). In kind it is in vivo. As to conditions: for INR value at 24 h: mean ± S.E. Here is the method:
In the pharmacodynamic study, the rats were randomly divided into four groups (n = 8 in each group). In the first experiment, two groups of rats were orally administered (±) warfarin (0.2 mg/kg) alone and with CJ (5 g/kg) given at 0.5 h prior to (±) warfarin dosing, and blood samples were drawn at 6, 10 and 24 h after (±) warfarin dosing. In the second experiment, two groups of rats were orally administered (±) warfarin (0.2 mg/kg) with and without CJ (5 g/kg), given at 10 h after (±) warfarin dosing, and blood samples were drawn at 10, 24, and 48 h after (±) warfarin dosing.
Ten µL of blood was collected and the INR was measured using CoaguChek® XS System (Roche Diagnostics GmbH, Mannheim, Germany). All procedures followed the manufacturer’s protocol.

For data set [2] the following is noted: rats; for Change of AUC0–10 vs warfarin alone / Change of AUC0–t vs warfarin alone / Change of Cmax vs warfarin alone: CJ 5.0 g/kg 0.5 h before warfarin; for Effect of CJ on AUC0–t / Effect of CJ on Cmax: CJ given at 10 h after (±) warfarin; for Decrease of AUC0-t / Decrease of AUC0–10 / Decrease of Cmax: CJ ingestion at 0.5 h before (±) warfarin, vs warfarin alone; for AUC0–10 / AUC0–t / AUC48–96 / Cmax: mean ± S.E.
Procedure: In the pharmacokinetic interaction study, the rats were randomly divided into three groups (n = 7 in each group). The first group of rats was orally administered (±) warfarin (0.2 mg/kg) alone. The second and third groups of rats were administered CJ (5 g/kg) at 0.5 h prior to (±) warfarin and at 10 h after (±) warfarin dosing, respectively. The study was performed in a parallel design. Blood samples were drawn at 0.5, 1.0, 2.0, 6.0, 10, 24, 48, 72, and 96 h after (±) warfarin dosing and collected in a Vacutainer K2 EDTA tube (BD, New Jersey, USA). The blood samples were centrifuged to obtain plasma.
Briefly, 100 µL of plasma was mixed with 50 µL of 0.5N formic acid and then partitioned with 150 µL of ethyl acetate containing 10 µg/mL of caffeic acid as an internal standard.
The pharmacokinetic parameters were calculated by Phoenix WinNonlin® version 8.1 (Pharsight Corporation, St. Louis, MO, USA). The unpaired Student’s t-test and one-way ANOVA were used for statistical comparisons, taking p < 0.05 as significant.

Setting [3] is: oral (±) warfarin 0.2 mg/kg + CJ 5.0 g/kg 0.5 h before warfarin.
Setting [4] is: oral (±) warfarin 0.2 mg/kg + CJ 5.0 g/kg 10 h after warfarin.
Setting [5] is: oral (±) warfarin 0.2 mg/kg alone.

Like-named read-outs stand apart in the source and are kept apart here. Marks after values point to notes of the source that are not given here.

These results are taken from paper PMC8470483, “Bidirectional Influences of Cranberry on the Pharmacokinetics and Pharmacodynamics of Warfarin with Mechanism Elucidation” (Nutrients, 2021).

Sequence of CYP2C9 (P11712 whole entry): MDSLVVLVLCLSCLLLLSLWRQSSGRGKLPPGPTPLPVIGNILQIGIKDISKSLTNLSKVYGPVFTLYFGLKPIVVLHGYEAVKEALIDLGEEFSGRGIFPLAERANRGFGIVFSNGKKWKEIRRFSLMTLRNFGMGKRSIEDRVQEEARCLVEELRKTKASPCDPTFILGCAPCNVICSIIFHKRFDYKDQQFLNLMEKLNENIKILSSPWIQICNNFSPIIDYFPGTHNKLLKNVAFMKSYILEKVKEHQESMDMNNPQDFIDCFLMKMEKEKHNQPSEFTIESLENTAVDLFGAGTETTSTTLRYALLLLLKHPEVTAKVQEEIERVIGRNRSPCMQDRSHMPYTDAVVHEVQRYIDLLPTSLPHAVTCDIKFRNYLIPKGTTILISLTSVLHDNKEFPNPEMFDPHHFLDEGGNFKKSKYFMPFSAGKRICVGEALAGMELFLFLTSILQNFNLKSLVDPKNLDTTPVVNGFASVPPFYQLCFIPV
Procedure for CYP2C9: Vivid® CYP450 screening kits were used to evaluate the effects of CMs on the activities of CYP1A2, CYP2C9, and CYP3A4, individually [26, 27], and all the procedures were performed based on the standard protocols.

Turning to `Nc1ccc(S(=O)(=O)Nc2ccnn2-c2ccccc2)cc1` [SFZ, sulfaphenazole], the “Decrease of CYP2C9 activity” value on CYP2C9 is recorded as 19%.
Consider `CC(=O)CC(c1ccccc1)c1c(O)c2ccccc2oc1=O` (racemic) [(±) warfarin, (±) Warfarin sodium], for which the “INR value at 24 h” value in data set [1] (control rats, oral (±) warfarin 0.2 mg/kg alone) is on record as 1.4 ± 0.1; in data set [1] (rats, oral (±) warfarin 0.2 mg/kg + CJ 5 g/kg given 0.5 h prior to warfarin), 1.6 ± 0.1; in data set [1] (rats, oral (±) warfarin 0.2 mg/kg + CJ 5 g/kg given 10 h later) it was 2.7 ± 0.5. Besides, the “INR value at 24 h compared with control rats” value in data set [1] (rats, CJ given 0.5 h prior to warfarin) is “not different from the control rats”. For the same compound, the “Increase of INR value at 24 h vs control rats” value in data set [1] (rats, CJ given 10 h after warfarin) is given as 93%.
`CC(=O)C[C@H](c1ccccc1)c1c(O)c2ccccc2oc1=O` [R-warfarin]: in data set [2], the “Change of AUC0–10 vs warfarin alone” value is on record as “(−54%)”, the “Change of AUC0–t vs warfarin alone” value was “(−52%)”, the “Change of Cmax vs warfarin alone” value was “(−51%)” and the “Effect of CJ on AUC0–t” value is recorded as “not affected”. Also, in data set [2], the “Effect of CJ on Cmax” value is “not affected”, the “Decrease of AUC0-t” value stood at 52%, the “Decrease of AUC0–10” value stood at 54% and the “Decrease of Cmax” value amounted to 51%. Also, in data set [2] (setting [3]), the “AUC0–10” value is 1310.8 ± 169.6 ^b h⋅ng/mL, the “AUC0–t” value is 3007.6 ± 230.0 ^b h⋅ng/mL, the “AUC48–96” value was 90.4 ± 58.2 h⋅ng/mL and the Cmax was 168.6 ± 17.2 ^b ng/mL. In data set [2] (setting [4]), the “AUC0–10” value was 2943.7 ± 185.7 ^a h⋅ng/mL, the “AUC0–t” value is on record as 4739.3 ± 255.0 ^ab h⋅ng/mL and the Cmax was 402.8 ± 33.6 ^a ng/mL. Further, in data set [2] (setting [5]), the “AUC0–10” value is 2848.9 ± 395.0 ^a h⋅ng/mL, the “AUC0–t” value is 6209.2 ± 1253.4 ^a h⋅ng/mL, the “AUC48–96” value is 222.0 ± 125.3 h⋅ng/mL and the Cmax is listed as 341.1 ± 56.6 ^a ng/mL.
Consider `CC(=O)C[C@@H](c1ccccc1)c1c(O)c2ccccc2oc1=O` [S-warfarin], for which, in data set [2], the “Change of AUC0–10 vs warfarin alone” value is “(−52%)”, the “Change of AUC0–t vs warfarin alone” value is reported as “(−34%)”, the “Change of Cmax vs warfarin alone” value is on record as “(−48%)” and the “Effect of CJ on AUC0–t” value was “not affected”. In addition, in data set [2], the “Effect of CJ on Cmax” value is reported as “not affected”, the “Decrease of AUC0-t” value is 34%, the “Decrease of AUC0–10” value is on record as 52% and the “Decrease of Cmax” value amounted to 48%. For the same compound, in data set [2] (setting [3]), the “AUC0–10” value was 1561.8 ± 217.3 ^b h⋅ng/mL, the “AUC0–t” value was 6286.7 ± 456.3 ^b h⋅ng/mL, the “AUC48–96” value is reported as 1041.3 ± 296.5 ^a h⋅ng/mL and the Cmax was 216.3 ± 18.1 ^b ng/mL. In data set [2] (setting [4]), the “AUC0–10” value is given as 3846.6 ± 260.8 ^a h⋅ng/mL, the “AUC0–t” value is 11,555.0 ± 613.6 ^a h⋅ng/mL, the “AUC48–96” value was 2547.9 ± 339.5 ^b h⋅ng/mL and the Cmax is 542.0 ± 59.4 ^a ng/mL. In addition, in data set [2] (setting [5]), the “AUC0–10” value is 3267.7 ± 423.2 ^a h⋅ng/mL, the “AUC0–t” value is 9459.1 ± 1659.6 ^a h⋅ng/mL, the “AUC48–96” value is listed as 1126.6 ± 434.5 ^a h⋅ng/mL and the Cmax is 418.2 ± 69.4 ^a ng/mL.
